What was measured:
Assay type in all cases: cell-based
[1] = system: conventional (U251) and patient-derived (GNS166 and GNS179) cell lines; test: Immunofluorescence for phosphohistone H3 (proliferation) in additional glioblastoma cell lines; conditions: dose-dependent
Method: (§1) For this, U87 cells were incubated for 48 h with increasing concentrations of the compounds. After that, cells were incubated with phosphohistone H3 or caspase-3 antibodies for the study of proliferation or apoptosis, respectively. Alexa Fluor 555 IgG anti-mouse and anti-rabbit secondary antibodies were used, and nuclear DNA was stained with DAPI. Pictures were taken with an Eclipse 80i microscope.
(§2) Furthermore, immunofluorescence assays for DDI199 were completed in additional conventional (U251) and patient-derived (GNS166 and GNS179) cell lines.

[2] = target: T1, HDAC6 (Homo sapiens, UniProt Q9UBN7); test: Western blot of HDAC6 and acetylated α-tubulin in treated U87 cells; conditions: 48 h, effect higher with increasing concentrations
T1 construct: endogenous in cells; host or cells: U87 glioblastoma cell line
T1 sequence (Q9UBN7 1-1215): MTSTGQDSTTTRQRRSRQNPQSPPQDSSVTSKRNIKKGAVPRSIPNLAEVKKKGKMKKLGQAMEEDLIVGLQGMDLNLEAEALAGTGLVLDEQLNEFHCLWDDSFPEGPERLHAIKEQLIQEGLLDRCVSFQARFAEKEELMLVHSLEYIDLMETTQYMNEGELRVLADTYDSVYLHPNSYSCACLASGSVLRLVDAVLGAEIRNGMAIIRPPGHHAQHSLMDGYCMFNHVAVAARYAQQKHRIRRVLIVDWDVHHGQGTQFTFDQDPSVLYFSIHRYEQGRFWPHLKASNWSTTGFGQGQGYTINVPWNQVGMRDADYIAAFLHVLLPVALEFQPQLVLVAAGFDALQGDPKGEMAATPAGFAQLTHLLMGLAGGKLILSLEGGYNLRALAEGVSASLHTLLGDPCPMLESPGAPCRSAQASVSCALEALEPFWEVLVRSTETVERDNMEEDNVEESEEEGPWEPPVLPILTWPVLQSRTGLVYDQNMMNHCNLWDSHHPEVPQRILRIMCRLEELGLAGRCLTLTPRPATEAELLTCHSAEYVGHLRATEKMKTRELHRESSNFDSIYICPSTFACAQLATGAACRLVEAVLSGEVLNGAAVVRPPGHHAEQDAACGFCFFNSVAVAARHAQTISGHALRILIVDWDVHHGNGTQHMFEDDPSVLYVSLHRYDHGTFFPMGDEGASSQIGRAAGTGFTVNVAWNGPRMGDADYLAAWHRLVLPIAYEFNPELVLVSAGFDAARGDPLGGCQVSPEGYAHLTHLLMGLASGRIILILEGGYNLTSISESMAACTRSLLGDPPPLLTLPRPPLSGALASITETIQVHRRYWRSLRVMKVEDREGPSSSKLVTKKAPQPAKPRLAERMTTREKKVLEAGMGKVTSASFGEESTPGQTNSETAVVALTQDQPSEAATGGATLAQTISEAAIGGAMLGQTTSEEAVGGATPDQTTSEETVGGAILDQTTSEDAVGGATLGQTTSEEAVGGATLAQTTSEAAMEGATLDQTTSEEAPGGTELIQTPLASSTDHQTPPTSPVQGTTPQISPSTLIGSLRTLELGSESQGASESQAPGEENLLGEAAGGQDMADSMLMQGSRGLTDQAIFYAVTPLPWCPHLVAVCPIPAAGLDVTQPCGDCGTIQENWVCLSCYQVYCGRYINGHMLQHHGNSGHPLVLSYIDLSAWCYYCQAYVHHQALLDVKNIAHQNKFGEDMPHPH
Method: Basing on the IC50 values, DDI199, MTP142, MTP156, MTP150, FRB44 and FRB56 were selected for further studies, as they seem to be the most promising compounds (see figure 1). Thus, the capacity of these compounds as HDAC inhibitors was tested. […] For this, specific antibodies against HDAC6 and HDAC1, and acetylated α-tubulin and acetylated histone H3 were used, and β-actin was included as control. Secondary antibodies were horseradish peroxidase (HRP)-linked anti-rabbit and anti-mouse and detection was performed by chemiluminiscence with NOVEX ECL Chemi Substrate.

[3] = system: GNS179; test: MTT cell viability assay in GNS179; conditions: GNS179 (patient-derived); MTT assay after 72 h of treatment
Method: (§3) As a first screening, dose-response assays were done in U87 glioblastoma cell line in order to obtain the IC50 values of the different compounds. Cells were seeded at a density of 1.500 cells/well in 96-well plates, incubated overnight and treated with increasing concentrations of the corresponding compounds. After 72 h of treatment, cell viability was determined by MTT assay. For this, MTT was added to the wells and cells were incubated for 3,5 h at 37 °C and 5% CO2. Then, media was removed and DMSO was added to resuspend the formed crystals. Absorbance at 570 nm was measured using a spectrophotometer, and GraphPad Prism software was used to analyze the results and calculate the IC50 values.
(§4) With this aim, additional MTT assays were carried out following the same protocol in other glioblastoma conventional (U251) and patient-derived (GNS179) cell lines. […]

[4] = system: U87 glioblastoma cell line; test: MTT cell viability dose-response assay in U87; conditions: MTT assay after 72 h of treatment
Method: as §3

[5] = system: U251; test: MTT cell viability assay in U251; conditions: Homo sapiens, U-251, MTT assay after 72 h of treatment
Method: as §3, §4

[6] = system: conventional (U251) and patient-derived (GNS166 and GNS179) cell lines; test: Immunofluorescence for caspase-3 (apoptosis) in additional glioblastoma cell lines; conditions: dose-dependent
Method: as §1, §2

SMILES	cell proliferation (PH3 positive cells) [1]	HDAC6 inhibitory capacity [2]	IC50 [3] [µM]	IC50 [4] [µM]	IC50 [5] [µM]	apoptosis (caspase-3 positive cells) [6]
C#CCN(Cc1cc2cc(OCCCN3CCCCC3)ccc2n1S(=O)(=O)c1ccccc1)C(=O)CCCCCCC(=O)NO [DDI199, N1-Hydroxy-N8-((1-(phenylsulfonyl)-5-(3-(piperidin-1-yl)propoxy)-1H-indol-2-yl)methyl)-N8-(prop-2-yn-1-yl)octanediamide]	significantly reduces cell proliferation	high HDAC6 inhibitory capacity	4.33	3.23	5.45	induces apoptosis
COc1ccc2c(ccn2S(=O)(=O)c2cccc(/C=C/C(=O)NO)c2)c1 [MTP142, (E)-N-Hydroxy-3-(3-((5-methoxy-1H-indol-1-yl)sulfonyl)phenyl)acrylamide]		inhibits HDAC6, although this effect is much slighter than that for DDI199				
